# PMC3627359 (Journal of medicinal chemistry, 2013)
# Read-outs that look alike come from different tables or passages of the source.
# Experiments:
# [1] = In vitro microsomal stability; format: in vitro ADME; conditions: Human microsomes, data from Apredica
# [2] = In vitro microsomal stability; format: in vitro ADME; conditions: Mouse microsomes, data from Apredica
# [3] = In vitro Caco-2 permeability; format: in vitro ADME; conditions: human
# [4] = cited from earlier work
# cortical neurons = test: Primary cortical neuron protection assay; format: cell-based
# [5] = system: PC12 cells expressing G93A SOD1; test: Mutant SOD1-induced cytotoxicity protection assay; format: cell-based
SMILES,NADPH-absent CLint (microsomal intrinsic clearance) [1],NADPH-dependent CLint (microsomal intrinsic clearance) [1],NADPH-absent CLint (microsomal intrinsic clearance) [2],NADPH-dependent CLint (microsomal intrinsic clearance) [2],other results
O=c1cc(COc2cc(Cl)cc(Cl)c2)[nH][nH]1 [Compound 1],13 mL/min/kg,25 mL/min/kg,21 mL/min/kg,64 mL/min/kg,efflux ratio [3]: 0.4; AUC/dose ([4]; i.v. administration): 184 ng*h/mL/dose; PK half-life ([4]; in vivo PK): 3.6 h; AUC/dose ([4]; p.o. administration): 50 ng*h/mL/dose; Oral bioavailability ([4]; p.o. vs i.v.): 27%
"O=c1cc(CNc2cc(Cl)cc(Cl)c2)[nH][nH]1 [Compound 2, 5-((3,5-Dichlorophenylamino)methyl)-1H-pyrazol-3(2H)-one]",0 mL/min/kg,24 mL/min/kg,23 mL/min/kg,78 mL/min/kg,–
"CN(Cc1cc(=O)[nH][nH]1)c1cc(Cl)cc(Cl)c1 [Compound 3, 5-(((3,5-Dichlorophenyl)(methyl)amino)methyl)-1H-pyrazol-3(2H)-one]",0 mL/min/kg,0 mL/min/kg,0 mL/min/kg,93 mL/min/kg,Neuronal activity recovered (cortical neurons; 10 μM concentration): 100%
"CN(Cc1cc(=O)n(Cc2ccccc2)[nH]1)c1cc(Cl)cc(Cl)c1 [Compound 29, 2-Benzyl-5-(((3,5-dichlorophenyl)(methyl)amino)methyl)-1H-pyrazol-3(2H)-one]",–,–,–,–,Activity in the PC12 assay [5]: comparable in activity to parent compound 3
"CN(CCCc1cc(=O)[nH][nH]1)c1cc(Cl)cc(Cl)c1 [Compound 24, 5-(3-((3,5-Dichlorophenyl)(methyl)amino)propyl)-1H-pyrazol-3(2H)-one]",–,–,–,–,Activity with cortical neurons (cortical neurons): not active
"CN(Cc1cc(=O)n(C)[nH]1)c1cc(Cl)cc(Cl)c1 [Compound 30, 5-(((3,5-Dichlorophenyl)(methyl)amino)methyl)-2-methyl-1H-pyrazol-3(2H)-one]",–,–,–,–,Activity in the PC12 assay [5]: comparable in activity to parent compound 3
"O=c1[nH][nH]c2c1CN(c1cc(Cl)cc(Cl)c1)CC2 [Compound 27, 5-(3,5-Dichlorophenyl)-4,5,6,7-tetrahydro-1H-pyrazolo[4,3-c]pyridin-3(2H)-one]",–,–,–,–,Activity with cortical neurons (cortical neurons): not active
